Data on 45 compounds can be found in US20120157401A1, “METHODS FOR TREATING NEUROFIBROMATOSIS” (PTC Therapeutics, Inc., priority 2009, published 2012).

The first test concerns hypoxia-inducible endogenous VEGF expression. The test is described as follows: Hypoxia-inducible endogenous VEGF expression ELISA in HeLa cells, dose-response EC50 (Table 3). The following applies: HeLa cells, hypoxic conditions (1% O2), 24-48 hours, VEGF in conditioned media; read-out: ELISA EC50. Type of test: cell-based, human. The protocol:
The ability of the Compounds to modulate hypoxia-inducible endogenous VEGF expression may be analyzed as follows. VEGF protein levels may be monitored by an ELISA assay (R&D Systems). Briefly, HeLa cells may be cultured for 24-48 hours under hypoxic conditions (1% O2, 5% CO2, balanced with nitrogen) in the presence or absence of a Compound. The conditioned media may then be assayed by ELISA, and the concentration of VEGF calculated from the standard ELISA curve of each assay.
A dose-response analysis may be performed using the ELISA assay and conditions described above. The conditions for the dose-response ELISA are analogous to those described above. A series of, e.g., seven different concentrations may be analyzed. In parallel, a dose-response cytotoxicity assay may be performed using Cell Titer Glo (Promega) under the same conditions as the ELISA to ensure that the inhibition of VEGF expression was not due to the cytotoxicity.
On the technique in general: In an ELISA, binding on a coated surface is turned into a signal by an enzyme label.
For the compound `COc1ccc(C2c3[nH]c4ccc(Cl)cc4c3CCN2C(=O)Oc2ccc(F)cc2)cc1` (stereo not drawn) [Compound 410], the EC50 was < 0.008 µM.

Staying with this test, now noted: Homo sapiens, HeLa, read-out: ELISA EC50 μM.
With `CN1CCCC(COc2ccc(C3c4[nH]c5ccc(Cl)cc5c4CCN3C(=O)Oc3ccccc3Cl)cc2)C1` (stereo not drawn) [Compound 976], the EC50 was in the range of 0.04 to 0.2 µM.
Consider `CN(C)CCCOc1ccc(C2c3[nH]c4ccc(Cl)cc4c3CCN2C(=O)Oc2ccc(Br)cc2)cc1` (stereo not drawn) [Compound 468], for which the EC50 is 0.008 to 0.04 µM.
With `Cc1ccc(OC(=O)N2CCc3c([nH]c4ccc(Cl)cc34)[C@@H]2c2ccc(OCCC(O)CN3CCOCC3)cc2)cc1` (stereo partly drawn) [Compound 1302], the EC50 lay within 0.04 to 0.2 µM.
Still for that read-out and setting: the same measure for `O=C(Oc1ccc(F)cc1)N1CCc2c([nH]c3ccc(Cl)cc23)C1c1ccc(OCCCCN2CCCCC2)cc1` (stereo not drawn) [Compound 739]: < 0.008 µM; for `CC(C)NCCCCCCOc1ccc(C2c3[nH]c4ccc(Cl)cc4c3CCN2C(=O)Oc2ccc(F)cc2)cc1` (stereo not drawn) [Compound 774]: 0.008 to 0.04 µM.
Same read-out and setting: the value for `O=C(Oc1ccc(Cl)cc1)N1CCc2c([nH]c3ccc(Cl)cc23)C1c1ccc(OCCCCNCCO)cc1` (stereo not drawn) [Compound 699] was 0.008 to 0.04 µM; that for `Cc1ccc(OC(=O)N2CCc3c([nH]c4ccc(Cl)cc34)C2c2ccc(OCC3CCCN(C)C3)cc2)cc1` (stereo not drawn) [Compound 951] was 0.008 to 0.04 µM.
Same read-out and setting: the value for `O=C(Oc1ccc(F)cc1)N1CCc2c([nH]c3ccc(Cl)cc23)C1c1ccc(OCCCCCCN2CCOCC2)cc1` (stereo not drawn) [Compound 776] was < 0.008 µM; that for `CN(C)CC(=O)Nc1ccc(C2c3[nH]c4ccc(Cl)cc4c3CCN2C(=O)Oc2ccc(Cl)cc2)cc1` (stereo not drawn) [Compound 491] was 0.04 to 0.2 µM; that for `O=C(COc1ccc(C2c3[nH]c4ccc(Cl)cc4c3CCN2C(=O)Oc2ccc(F)cc2)cc1)N1CCN(CCO)CC1` (stereo not drawn) [Compound 1064] was 0.008 to 0.04 µM.
With `COc1ccc(OC(=O)N2CCc3c([nH]c4ccc(Cl)cc34)C2c2ccc(OCCCN3CCOCC3)c(OC)c2)cc1` (stereo not drawn) [Compound 1131], the half-maximal effective concentration (EC50) lay in the range of 0.008 to 0.04 µM.
The same measure, in the same setting: the same measure for `CC(=O)N1CCN(CCCOc2ccc(C3c4[nH]c5ccc(Cl)cc5c4CCN3C(=O)Oc3ccc(Cl)cc3)cc2)CC1` (stereo not drawn) [Compound 903]: < 0.008 µM; for `CN1CCC(OCCCOc2ccc(C3c4[nH]c5ccc(Cl)cc5c4CCN3C(=O)Oc3ccc(Cl)cc3)cc2)CC1` (stereo not drawn) [Compound 1554]: > 1 µM.
Same read-out and setting: the value for `CC(C)NCCCCOc1ccc(C2c3[nH]c4ccc(Cl)cc4c3CCN2C(=O)Oc2ccc(Cl)cc2)cc1` (stereo not drawn) [Compound 700] was 0.008 to 0.04 µM; that for `O=C(Oc1ccc(F)cc1)N1CCc2c([nH]c3ccc(Cl)cc23)C1c1cccc(OCCCN2CCOCC2)c1` (stereo not drawn) [Compound 1115] was 0.008 to 0.04 µM.
Same read-out and setting: the same measure for `COCCN(C)CC(O)COc1ccc(C2c3[nH]c4ccc(Cl)cc4c3CCN2C(=O)Oc2ccc(Cl)cc2)cc1` (stereo not drawn) [Compound 964]: 0.008 to 0.04 µM.
On to `CN1CCN(CCCOc2ccc(C3c4[nH]c5ccc(Cl)cc5c4CCN3C(=O)Oc3ccc(Cl)cc3)cc2)CC1` (stereo not drawn) [Compound 961], for which the EC50 lay within 0.008 to 0.04 µM.
Still for that read-out and setting: the same measure for `COCCCNCCCCCCOc1ccc(C2c3[nH]c4ccc(Cl)cc4c3CCN2C(=O)Oc2ccc(F)cc2)cc1` (stereo not drawn) [Compound 775]: < 0.008 µM.

Still in this test, the particulars now being: Homo sapiens; HeLa cells, hypoxic conditions (1% O2), 24-48 hours, VEGF in conditioned media; read-out: ELISA EC50.
As to `COc1ccc(C2c3[nH]c4ccc(Cl)cc4c3CCN2C(=O)Oc2ccc(Cl)cc2)cc1OCCCCn1cncn1` (stereo not drawn) [Compound 1091], the EC50 lay in the range of 0.2 to 1 µM.
`CC1(C)OCC(COc2ccc([C@H]3c4[nH]c5ccc(Cl)cc5c4CCN3C(=O)Oc3ccc(Cl)cc3)cc2)CO1` [Compound 1207]: the EC50 was < 0.008 µM.
With `O=C(Oc1ccc(F)cc1)N1CCc2c([nH]c3ccc(Cl)cc23)C1c1ccc(OCCCn2ccnn2)cc1` (stereo not drawn) [Compound 995], the EC50 was < 0.008 µM.
Same read-out and setting: the value for `O=C(Oc1ccc(Cl)cc1)N1CCc2c([nH]c3ccc(Cl)cc23)C1c1ccc(OCC(O)CO)cc1` (stereo not drawn) [Compound 629] was < 0.008 µM; that for `Cc1ccc(OC(=O)N2CCc3c([nH]c4ccc(Cl)cc34)C2c2ccc(OCCCn3cncn3)cc2)cc1` (stereo not drawn) [Compound 882] was < 0.008 µM; that for `COc1ccc(OC(=O)N2CCc3c([nH]c4ccc(Cl)cc34)C2c2ccc(OCC(N)=O)cc2)cc1` (stereo not drawn) [Compound 1216] was 0.008 to 0.04 µM.
For the compound `O=C(Oc1ccccc1Cl)N1CCc2c([nH]c3ccc(Cl)cc23)C1c1ccc(OCC(O)CO)cc1` (stereo not drawn) [Compound 628], the EC50 lay in the range of 0.04 to 0.2 µM.
With `O=C(Oc1ccccc1)N1CCc2c([nH]c3ccc(Cl)cc23)C1c1ccc(OCC2OCCO2)cc1` (stereo not drawn) [Compound 1050], the half-maximal effective concentration (EC50) was < 0.008 µM.
On the same count and under the same terms, the same measure for `O=C(Oc1ccc(Cl)cc1)N1CCc2c([nH]c3ccc(Cl)cc23)[C@@H]1c1ccc(O)cc1` [Compound 1160]: < 0.008 µM; for `O=C(Oc1ccc(F)cc1)N1CCc2c([nH]c3ccc(Cl)cc23)C1c1ccc(OCCCCCCn2cncn2)cc1` (stereo not drawn) [Compound 781]: < 0.008 µM.
The same measure, in the same setting: the value for `COc1ccc(C2c3[nH]c4ccc(Cl)cc4c3CCN2C(=O)Oc2ccc(Cl)cc2)cc1F` (stereo not drawn) [Compound 1199] was 0.008 to 0.04 µM.
Same read-out and setting: the same measure for `COc1ccc(C2c3[nH]c4ccc(C)cc4c3CCN2C(=O)Oc2ccc(Cl)cc2)cc1` (stereo not drawn) [Compound 341]: 0.04 to 0.2 µM.
For `Cc1cnc(NCCOc2ccc(C3c4[nH]c5ccc(Cl)cc5c4CCN3C(=O)Oc3ccc(Cl)cc3)cc2)s1` (stereo not drawn) [#842], the EC50 is < 0.008 µM.
Still for that read-out and setting: the value for `CCOC(COc1ccc(C2c3[nH]c4ccc(Cl)cc4c3CCN2C(=O)Oc2ccc(Cl)cc2)cc1)OCC` (stereo not drawn) [Compound 1228] was < 0.008 µM.
Regarding `Cc1ccc(OC(=O)N2CCc3c([nH]c4ccc(Cl)cc34)C2c2ccc(OCCCn3ccnc3)cc2)cc1` (stereo not drawn) [Compound 900], the EC50 was < 0.008 µM.
The same measure, in the same setting: the same measure for `O=C(Oc1ccc(Cl)cc1)N1CCc2c([nH]c3ccc(Cl)cc23)[C@H]1c1ccc(OCCCCl)cc1` [Compound 1126]: 0.2 to 1 µM; for `O=C(Oc1ccc(F)cc1)N1CCc2c([nH]c3ccc(Cl)cc23)C1c1ccc(OCC[C@H](O)CO)cc1` (stereo partly drawn) [Compound 1179]: < 0.008 µM.
As to `COc1cc(C2c3[nH]c4ccc(Cl)cc4c3CCN2C(=O)Oc2ccc(Cl)cc2)ccc1OCCCn1cncn1` (stereo not drawn) [Compound 1087], the EC50 is 0.008 to 0.04 µM.

Still in this test, the particulars now being: Homo sapiens; HeLa cells, hypoxic conditions (1% O2), VEGF ELISA of conditioned media; read-out: ELISA EC50.
Turning to `CCC(=O)NCC(O)CCOc1ccc([C@H]2c3[nH]c4ccc(Cl)cc4c3CCN2C(=O)Oc2ccc(Cl)cc2)cc1` (stereo partly drawn) [Compound 1625], the EC50 was < 0.008 µM.
Same read-out and setting: the same measure for `CC(C)S(=O)(=O)NCC(O)COc1ccc(C2c3[nH]c4ccc(Cl)cc4c3CCN2C(=O)Oc2ccc(F)cc2)cc1` (stereo not drawn) [Compound 1557]: 0.2 to 1 µM; for `O=C(Oc1ccc(F)cc1)N1CCc2c([nH]c3ccc(Br)cc23)C1c1ccc(OCC(O)CO)cc1` (stereo not drawn) [Compound 1343]: < 0.008 µM.
The same measure, in the same setting: the value for `C#CCOc1ccc([C@H]2c3[nH]c4ccc(Cl)cc4c3CCN2C(=O)Oc2ccc(Cl)cc2)cc1` [Compound 1612] was < 0.008 µM; that for `COc1ccc(OC(=O)N2CCc3c([nH]c4ccc(Cl)cc34)[C@@H]2c2ccc(OCC(C)(CO)CO)cc2)cc1` [Compound 1337] was 0.008 to 0.04 µM; that for `O=C(NCC(O)COc1ccc(C2c3[nH]c4ccc(Cl)cc4c3CCN2C(=O)Oc2ccc(Cl)cc2)cc1)C1CC1` (stereo not drawn) [Compound 1560] was 0.008 to 0.04 µM.
For `O=C(Oc1ccc(Cl)cc1)N1CCc2c([nH]c3ccc(Cl)cc23)[C@@H]1c1ccc(OCCc2cn(C3OC(CO)C(O)C(O)C3O)nn2)cc1` (stereo partly drawn) [Compound 1676], the EC50 was > 1 µM.
On the same count and under the same terms, the value for `Nc1ccn(CCOc2ccc(C3c4[nH]c5ccc(Cl)cc5c4CCN3C(=O)Oc3ccc(Cl)cc3)cc2)n1` (stereo not drawn) [Compound 1417] was < 0.008 µM.

A word on the EC50: it is the concentration needed to bring the measured effect to its halfway point.
